What was measured:
[1] = biological target: Beta-2 adrenergic receptor (Homo sapiens, UniProt P07550); assay: DRUGMATRIX: Adrenergic beta2 radioligand binding (ligand: [3H] CGP-12177); type: cell membranes, CHO, Membrane; conditions: Not Active = under 50% inhibition at 10 µM
Thromboxane-A synthase = biological target: T1, Thromboxane-A synthase (Homo sapiens, UniProt P24557); assay: biochemical; type: tissue-based, Platelet; conditions: platelet;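 further: enzyme inhibition assay with PGH2 supplied as substrate; in other assays of this panel Not Active means under 50% inhibition at 10 µM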
T1 sequence (P24557 whole entry): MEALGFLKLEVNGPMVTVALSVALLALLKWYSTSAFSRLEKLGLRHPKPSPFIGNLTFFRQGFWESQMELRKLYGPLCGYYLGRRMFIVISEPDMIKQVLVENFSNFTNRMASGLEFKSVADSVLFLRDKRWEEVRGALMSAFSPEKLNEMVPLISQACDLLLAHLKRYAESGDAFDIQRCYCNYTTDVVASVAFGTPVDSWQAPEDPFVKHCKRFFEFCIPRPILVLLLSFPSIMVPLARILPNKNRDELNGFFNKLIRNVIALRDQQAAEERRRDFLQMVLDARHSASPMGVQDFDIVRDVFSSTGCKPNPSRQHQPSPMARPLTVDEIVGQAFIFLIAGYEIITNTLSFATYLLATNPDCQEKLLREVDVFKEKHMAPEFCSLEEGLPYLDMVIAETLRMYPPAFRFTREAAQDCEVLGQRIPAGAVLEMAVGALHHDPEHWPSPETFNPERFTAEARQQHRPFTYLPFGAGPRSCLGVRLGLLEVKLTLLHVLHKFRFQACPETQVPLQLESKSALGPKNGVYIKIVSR

[2] = biological target: T2, C-X-C chemokine receptor type 1 (Homo sapiens, UniProt P25024); further: in other assays of this panel Not Active means under 50% inhibition at 10 µM
T2 sequence (P25024 whole entry): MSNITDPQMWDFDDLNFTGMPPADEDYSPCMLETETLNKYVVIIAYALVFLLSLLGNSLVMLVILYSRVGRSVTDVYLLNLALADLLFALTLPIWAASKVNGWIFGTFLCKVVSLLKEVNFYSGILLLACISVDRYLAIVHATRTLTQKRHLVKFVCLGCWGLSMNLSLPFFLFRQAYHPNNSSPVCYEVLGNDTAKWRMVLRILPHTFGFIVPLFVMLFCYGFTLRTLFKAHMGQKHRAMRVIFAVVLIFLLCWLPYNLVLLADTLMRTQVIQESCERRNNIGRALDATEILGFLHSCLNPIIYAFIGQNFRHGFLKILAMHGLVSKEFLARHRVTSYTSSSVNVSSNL

Endothelin-1 receptor = biological target: T3, Endothelin-1 receptor (Homo sapiens, UniProt P25101); type: cell membranes, Membrane; conditions: cho-k1; further: in other assays of this panel Not Active means under 50% inhibition at 10 µM
T3 sequence (P25101 whole entry): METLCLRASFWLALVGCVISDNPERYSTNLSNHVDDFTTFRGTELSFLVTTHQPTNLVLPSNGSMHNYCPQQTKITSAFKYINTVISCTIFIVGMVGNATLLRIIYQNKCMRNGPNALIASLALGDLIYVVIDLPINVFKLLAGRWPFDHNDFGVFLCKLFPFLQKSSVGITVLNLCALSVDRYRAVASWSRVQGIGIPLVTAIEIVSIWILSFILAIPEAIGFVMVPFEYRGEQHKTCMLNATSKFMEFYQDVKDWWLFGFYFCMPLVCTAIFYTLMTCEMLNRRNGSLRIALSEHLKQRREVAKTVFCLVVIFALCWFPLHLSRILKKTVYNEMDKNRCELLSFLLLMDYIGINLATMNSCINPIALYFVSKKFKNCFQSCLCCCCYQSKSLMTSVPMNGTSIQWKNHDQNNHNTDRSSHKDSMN

[3] = DRUGMATRIX: Imidazoline I2, Central radioligand binding (ligand: [3H] Idazoxan); type: cell membranes, Rattus norvegicus, Wistar, Cerebral cortex, Membrane; conditions: Not Active = under 50% inhibition at 10 µM
Interstitial collagenase = biological target: T4, Interstitial collagenase (Homo sapiens, UniProt P03956); assay: biochemical; type: tissue-based, Rheumatoid synovial fibroblasts;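 further: MMP-1 enzyme inhibition assay using a peptide substrate; in other assays of this panel Not Active means under 50% inhibition at 10 µM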
T4 sequence (P03956 whole entry): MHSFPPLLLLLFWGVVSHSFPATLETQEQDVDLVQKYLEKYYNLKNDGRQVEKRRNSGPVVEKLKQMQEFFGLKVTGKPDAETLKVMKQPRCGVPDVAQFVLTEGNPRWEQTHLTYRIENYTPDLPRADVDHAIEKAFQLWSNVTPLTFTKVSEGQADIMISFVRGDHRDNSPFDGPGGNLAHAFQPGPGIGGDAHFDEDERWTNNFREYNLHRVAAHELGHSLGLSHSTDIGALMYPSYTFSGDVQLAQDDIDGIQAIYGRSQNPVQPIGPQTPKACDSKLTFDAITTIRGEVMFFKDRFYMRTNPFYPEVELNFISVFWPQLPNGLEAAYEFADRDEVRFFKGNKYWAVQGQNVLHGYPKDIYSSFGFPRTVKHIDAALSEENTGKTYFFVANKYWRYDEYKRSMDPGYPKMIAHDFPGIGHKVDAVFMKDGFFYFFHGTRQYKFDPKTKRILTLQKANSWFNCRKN

Chain of Beta-2 adrenergic receptor (P07550 whole entry): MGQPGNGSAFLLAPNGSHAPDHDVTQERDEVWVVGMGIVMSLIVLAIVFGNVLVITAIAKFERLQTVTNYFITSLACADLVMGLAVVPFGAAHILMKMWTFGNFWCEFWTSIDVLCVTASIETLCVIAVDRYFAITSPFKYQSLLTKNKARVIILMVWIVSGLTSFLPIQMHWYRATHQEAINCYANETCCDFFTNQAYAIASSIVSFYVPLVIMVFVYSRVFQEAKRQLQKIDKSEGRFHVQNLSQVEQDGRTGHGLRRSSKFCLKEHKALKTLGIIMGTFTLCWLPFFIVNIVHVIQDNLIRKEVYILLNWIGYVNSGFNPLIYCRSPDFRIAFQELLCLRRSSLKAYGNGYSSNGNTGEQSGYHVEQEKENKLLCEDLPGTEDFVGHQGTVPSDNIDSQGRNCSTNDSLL

Question: With `CC(C)(C)NC[C@H](O)COc1cccc2c1CCCC2=O` [LEVOBUNOLOL] as the compound, how does the IC50 ([1]; read-out: IC50) read?
Answer: 0.793 nM

Question: What about the Ki ([1]; read-out: Ki) of the same compound?
Answer: 0.546 nM

Question: What about the IC50 (Thromboxane-A synthase) of the same compound?
Answer: Not Active

Question: And the IC50 [2]?
Answer: Not Active

Question: And the IC50 (Endothelin-1 receptor)?
Answer: Not Active

Question: What about the IC50 [3] of the same compound?
Answer: Not Active

Question: What about the Ki [3] of the same compound?
Answer: Not Active

Question: And the IC50 (Interstitial collagenase)?
Answer: Not Active

Question: What does the source list for `Cc1cccc(C)c1NC(=O)C(C)N` (stereo unspecified) [TOCAINIDE]?
Answer: IC50 ([1]; cho): Not Active; IC50 (Thromboxane-A synthase): Not Active; IC50 [2]: Not Active; IC50 (Endothelin-1 receptor): Not Active; IC50 [3]: Not Active; Ki [3]: Not Active; IC50 (Interstitial collagenase): Not Active

Question: Which results are given for `CCOc1cc(N)c(Cl)cc1C(=O)NCC1CN(Cc2ccc(F)cc2)CCO1` (stereo unspecified) [MOSAPRIDE]?
Answer: IC50 ([1]; cho): Not Active; IC50 (Thromboxane-A synthase): Not Active; IC50 [2]: Not Active; IC50 (Endothelin-1 receptor): Not Active; IC50 [3]: Not Active; Ki [3]: Not Active; IC50 (Interstitial collagenase): Not Active

Question: With `Cc1cnc(NC(=O)C2=C(O)c3ccccc3S(=O)(=O)N2C)s1` [MELOXICAM] as the compound, how does the IC50 ([1]; cho) read?
Answer: Not Active

Question: What about the IC50 (Thromboxane-A synthase) of the same compound?
Answer: Not Active

Question: What about the IC50 [2] of the same compound?
Answer: Not Active

Question: What about the IC50 (Endothelin-1 receptor) of the same compound?
Answer: Not Active

Question: What about the IC50 [3] of the same compound?
Answer: Not Active

Question: What about the Ki [3] of the same compound?
Answer: Not Active

Question: What about the IC50 (Interstitial collagenase) of the same compound?
Answer: Not Active

Question: Which results are given for `O=C1CC[C@@]2(O)[C@H]3Cc4ccc(O)c5c4[C@@]2(CCN3CC2CC2)[C@H]1O5` [NALTREXONE]?
Answer: IC50 ([1]; cho): Not Active; IC50 (Thromboxane-A synthase): Not Active; IC50 [2]: Not Active; IC50 (Endothelin-1 receptor): Not Active; IC50 [3]: Not Active; Ki [3]: Not Active; IC50 (Interstitial collagenase): Not Active

Question: For `O=C(c1ccccc1)c1ccc2n1CCC2C(=O)O` (stereo unspecified) [KETOROLAC], which IC50 ([1]; cho) is on record?
Answer: Not Active

Question: What about the IC50 (Thromboxane-A synthase) of the same compound?
Answer: Not Active

Question: And the IC50 [2]?
Answer: Not Active

Question: And the IC50 (Endothelin-1 receptor)?
Answer: Not Active

Question: What about the IC50 [3] of the same compound?
Answer: Not Active

Question: And the Ki [3]?
Answer: Not Active

Question: And the IC50 (Interstitial collagenase)?
Answer: Not Active

Question: With `Oc1ccc(/C=C/c2cc(O)cc(O)c2)cc1` [RESVERATROL] as the compound, how does the IC50 ([1]; cho) read?
Answer: Not Active

Question: And the IC50 (Thromboxane-A synthase)?
Answer: Not Active

Question: And the IC50 [2]?
Answer: Not Active

Question: What about the IC50 (Endothelin-1 receptor) of the same compound?
Answer: Not Active

Question: What about the IC50 [3] of the same compound?
Answer: Not Active

Question: And the Ki [3]?
Answer: Not Active

Question: And the IC50 (Interstitial collagenase)?
Answer: Not Active

Question: Which results are given for `CN1C(=O)OC(C)(C)C1=O` [TRIMETHADIONE]?
Answer: IC50 ([1]; cho): Not Active; IC50 (Thromboxane-A synthase): Not Active; IC50 [2]: Not Active; IC50 (Endothelin-1 receptor): Not Active; IC50 [3]: Not Active; Ki [3]: Not Active; IC50 (Interstitial collagenase): Not Active

Question: For `Cc1[nH]c(=O)c(C#N)cc1-c1ccncc1` [MILRINONE], which IC50 ([1]; cho) is on record?
Answer: Not Active

Question: What about the IC50 (Thromboxane-A synthase) of the same compound?
Answer: Not Active

Question: What about the IC50 [2] of the same compound?
Answer: Not Active

Question: And the IC50 (Endothelin-1 receptor)?
Answer: Not Active

Question: And the IC50 [3]?
Answer: Not Active

Question: And the Ki [3]?
Answer: Not Active

Question: And the IC50 (Interstitial collagenase)?
Answer: Not Active

Question: What does the source list for `C[C@]12CCC(=O)C[C@@H]1CC[C@@H]1[C@@H]2CC[C@]2(C)[C@@H](O)CC[C@@H]12` [STANOLONE]?
Answer: IC50 ([1]; cho): Not Active; IC50 (Thromboxane-A synthase): Not Active; IC50 [2]: Not Active; IC50 (Endothelin-1 receptor): Not Active; IC50 [3]: Not Active; Ki [3]: Not Active; IC50 (Interstitial collagenase): Not Active

Question: With `CCN(CC)CCNC(=O)c1cc(Cl)c(N)cc1OC` [METOCLOPRAMIDE] as the compound, how does the IC50 ([1]; cho) read?
Answer: Not Active

Question: And the IC50 (Thromboxane-A synthase)?
Answer: Not Active

Question: And the IC50 [2]?
Answer: Not Active

Question: And the IC50 (Endothelin-1 receptor)?
Answer: Not Active

Question: What about the IC50 ([3]; read-out: IC50) of the same compound?
Answer: 708 nM

Question: And the Ki ([3]; read-out: Ki)?
Answer: 472 nM

Question: What about the IC50 (Interstitial collagenase) of the same compound?
Answer: Not Active

Question: With `CN(C)CCC=C1c2ccccc2COc2ccccc21` [DOXEPIN] as the compound, how does the IC50 (Thromboxane-A synthase) read?
Answer: Not Active

Question: What about the IC50 [2] of the same compound?
Answer: Not Active

Question: What about the IC50 (Endothelin-1 receptor) of the same compound?
Answer: Not Active

Question: And the IC50 (Interstitial collagenase)?
Answer: Not Active

Question: With `COC(=O)Nc1nc2ccc(C(=O)c3ccccc3)cc2[nH]1` [MEBENDAZOLE] as the compound, how does the IC50 ([1]; cho) read?
Answer: Not Active

Question: What about the IC50 (Thromboxane-A synthase) of the same compound?
Answer: Not Active

Question: What about the IC50 [2] of the same compound?
Answer: Not Active

Question: And the IC50 (Endothelin-1 receptor)?
Answer: Not Active

Question: And the IC50 [3]?
Answer: Not Active

Question: What about the Ki [3] of the same compound?
Answer: Not Active

Question: What about the IC50 (Interstitial collagenase) of the same compound?
Answer: Not Active

Question: With `O=[As][O-].[Na+]` [SODIUM ARSENITE] as the compound, how does the IC50 ([1]; cho) read?
Answer: Not Active

Question: And the IC50 (Thromboxane-A synthase)?
Answer: Not Active

Question: What about the IC50 [2] of the same compound?
Answer: Not Active

Question: And the IC50 (Endothelin-1 receptor)?
Answer: Not Active

Question: What about the IC50 [3] of the same compound?
Answer: Not Active

Question: And the Ki [3]?
Answer: Not Active

Question: What about the IC50 (Interstitial collagenase) of the same compound?
Answer: Not Active

— ChEMBL document CHEMBL1909046, “DrugMatrix in vitro pharmacology data”
